Holding throughout (assay): NCI tumour cell line growth inhibition, 48 h
In test [1] the test system is SR leukemia.
Test [2] relates to OVCAR-8 ovarian.
Test [3] concerns ACHN renal.
Test [4] relates to NCI-H23 lung.
The subject of test [5] is UO-31 renal.
Test [6] deals with K-562 leukemia.
Test [7] deals with SK-MEL-5 melanoma.
For test [8], the system named is HCT-15 colon.
Test [9] concerns SK-OV-3 ovarian.
Test [10] deals with KM12 colon.

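Compound exposure: 48 hours, 5 concentrations, 96-well plates. At the GI50, growth is halved. TGI is the concentration that stops growth completely.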 A value given as a limit tells only on which side of the number the result lay.

Regarding `C/C(CC(=O)N(C(C)C)C(C)C)=N\NC(=O)c1ccncc1`, the TGI in test [1], in test [2], in test [3], in test [4], in [5] and in [6] was more than 100 µM throughout. Moreover, the TGI in test [7], in test [8] and in test [9] was more than 100 µM in each case.
For `CC1=C(C(=O)Nc2ccc(Cl)c(Cl)c2)C(c2ccccc2O)NC(=O)N1` (stereo not drawn), the GI50 in [1] is 39.9 µM; in test [2] it was 24.8 µM; in test [3], more than 50 µM; in [5] it was more than 50 µM; in test [6] it was 26 µM; in test [7], 22.5 µM. Also, the GI50 in [10] is 16.9 µM; in test [8] it was more than 50 µM; in test [9], more than 50 µM. The TGI in test [1], in test [2], in test [3], in test [5], in test [6] and in test [7] was more than 50 µM each time. For the same molecule, the TGI in test [10], in test [8] and in test [9] was more than 50 µM in each case.
For the molecule `CCOC(=O)C1COc2cc(-c3cc(=O)c4ccccc4o3)ccc2O1` (stereo not drawn), the TGI in test [1] was more than 100 µM; in test [2] it was 93.6 µM; in [3], more than 100 µM; in test [4], more than 100 µM; in test [5], 76.8 µM; in [6] it was more than 100 µM. Further, the TGI in [7], in test [10] and in test [9] was more than 100 µM in each case.
Turning to `CC1CC[C@]2(C(=O)O)CCC3(C)C(=CCC4[C@@]5(C)CC[C@H](OS(=O)(=O)c6ccccc6)C(C)(C)C5CC[C@]43C)[C@@H]2[C@H]1C` (stereo partly drawn), the TGI in test [1], in [2], in test [3], in [4], in test [5] and in test [6] was more than 100 µM in each case. Also, the TGI in test [7], in test [10] and in test [9] was more than 100 µM throughout.
Regarding `COc1cccc(C2NC(=S)NC(C)=C2C(=O)Nc2ccc(Cl)c(Cl)c2)c1` (stereo not drawn), the GI50 in test [1] is 42.6 µM; in test [2], 12.4 µM; in test [3], 10.1 µM; in [5], 9.1 µM; in [6], 16.3 µM; in test [7] it was 8.43 µM. Further, the GI50 was 10.1 µM in [10], 8.57 µM in test [8] and 21.3 µM in [9]. Besides, the TGI in test [1] is more than 50 µM; in test [2] it was 23.9 µM; in [3], 23.2 µM; in [5] it was 17.9 µM; in [6], more than 50 µM; in [7], 16.1 µM. In addition, the TGI in test [10] is 20.5 µM; in [8] it was 22.6 µM; in test [9] it was more than 50 µM.
Regarding `CC(=O)OC1CC2C(=O)C(=O)C1(C)C2(C)C` (stereo not drawn), the TGI in test [1], in test [2], in test [3], in test [4], in test [5] and in test [6] was more than 100 µM each time. Also, the TGI in test [7], in test [8] and in test [9] was more than 100 µM each time.
As to `C[C@@H]1C[C@]2(C[C@@H](C)C3[C@@H](CC4(C)[C@@H]5CCC6C(C)(C)OC(=O)C=C[C@]67C[C@@]5(CC[C@]34C)OO7)O2)OC1=O` (stereo partly drawn), the TGI in test [1], in [2], in [3], in test [4], in test [5] and in test [6] was more than 100 µM each time. Besides, the TGI in [7], in [8] and in [9] was more than 100 µM in each case.
For the molecule `O=c1cc(-c2ccccn2)[nH]c2ccc(Cl)cc12`, the TGI in [1], in [2], in test [3], in test [4], in [5] and in [6] was more than 100 µM throughout. The TGI in test [7], in test [10] and in [9] was more than 100 µM in each case. Further, in test [7], the GI50 was 26.6 µM.
For the molecule `CCOC(=O)[C@H]1Nc2ccccc2C2c3ccccc3CC21` (stereo partly drawn), the TGI in test [1], in test [2], in [3], in [4], in test [5] and in test [6] was more than 100 µM each time. Moreover, the TGI was 54.6 µM in [7], more than 100 µM in test [10] and more than 100 µM in test [8].
In the case of `CCCCCCCCCCCCOP(N)(=O)OCCCCCCCCCCCC`, the TGI in [1], in test [2], in test [3], in test [4], in test [5] and in test [6] was more than 100 µM throughout. Besides, the TGI in test [8] and in test [9] was more than 100 µM in each case.
